Reference: patent US20250282797A1, “CRYSTALLINE FORM OF FGFR4 INHIBITOR AND USE THEREOF” (CSPC ZHONGQI PHARMACEUTICAL TECHNOLOGY (SHIJIAZHUANG) CO., …, priority 2022, published 2025)

Legend:
FGFR4 = FGFR4 (Homo sapiens, UniProt P22455); experiment: FGFR4 kinase activity inhibition assay (Caliper mobility shift); type: biochemical
Method: 1. FGFR4 Kinase Activity Inhibition Assay
The FGFR4 protein kinase activity was determined by using the Caliper mobility shift assay technology. The compound was dissolved in DMSO and then diluted with a kinase buffer, and 5 μL of the compound (10% DMSO) at a 5-fold final reaction concentration was added to a 384-well plate. 10 μL of a 2.5-fold enzyme (FGFR4) solution was added, and then the mixture was incubated at room temperature for 10 min. 10 μL of a 2.5-fold substrate (FAM-labeled peptide and ATP) solution was added. The mixture was incubated at 28° C. for 30-60 min, and then 25 μL of a terminating solution was added to terminate the reaction. Conversion rate data were read on Caliper EZ Reader II (Caliper Life Sciences). The conversion rate was converted into inhibition data date (% inhibition rate=(max−sample conversion rate)/(max−min)×100), wherein max referred to the conversion rate of the DMSO control, and min referred to the conversion rate of the enzyme-free control. The concentration and inhibition rate of the compound were used as the abscissa and ordinate to plot the curve, and the XLFit Excel Add-in version 4.3.1 software was used to fit the curve and calculate the IC50 value.

Huh7 cell = experiment: Inhibition assay on Huh-7 tumor cell proliferation (CTG); type: cell-based; conditions: Homo sapiens, 72 h or 168 h drug treatment
Method: 2. Inhibition Assay of Compound on Huh-7 Tumor Cell Proliferation
An Huh7 cell suspension was adjusted to 5×10e4 cells/mL or 2×10e4 cells/mL with DMEM+2 mM Glutamine+10% FBS medium. The cell suspension (100 μL) was added to each well of a 96-well cell culture plate at a final cell concentration of 5000 cells/well (72 h) or 2000 cells/well (168 h). The test compound was dissolved in DMSO as a 10 mmol stock solution. Compounds at 200× final concentration were prepared using the stock solution and DMSO, and 3×serial dilutions were prepared and diluted 20-fold with the medium. Finally, 10 μL of the corresponding 10-fold solution was added to each well of each cell strain, a single well for each drug concentration. […] After 72 h or 168 h of drug treatment, 100 μL of a CTG solution which was pre-melted and equilibrated to room temperature was added to each well according to CTG operation instructions, and the solution was mixed well using a microplate shaker for 2 min, left to stand at room temperature for 10 min, and measured for chemiluminescence signal values using an EnSpire plate reader. The cell survival rate was calculated using the following formula: (Vsample−Vblank)/(Vvehicle control−Vblank)×100%, wherein Vsample was the reading of the drug treatment group, Vvehicle control was the average value of the solvent control group, and Vblank was the average value of the blank control well. […]

[1] = Pharmacokinetic study in rats; type: in vivo, SD rats; conditions: rat
Description: Test Example 6: Pharmacokinetic Study of Compound of Formula B in Rats
Assay drug: the compound of formula B obtained in Preparation Example 1.
Instrument: LC-MS/MS-13 (TQ5500, Triple quad), with the operation software of Xcalibur2.0.7 (Thermo Fisher Scientific, USA); LC-10ADvp liquid chromatography system (Shimadzu, Japan); Shimadzu LC-20AD liquid chromatography pump; Shimadzu CBM-20A system controller; Shimadzu CTO-20A column oven; and SIL-20AC autosampler (Shimadzu, Japan). Chromatographic column: Agilent Zorbax SB-CN 3.5 u 100×2.1 mm; column temperature: 40° C.; mobile phase A: 0.1% aqueous formic acid solution; mobile phase B: a 0.1% solution of formic acid in acetonitrile; flow rate: 0.60 mL/min. The gradient elution was performed as follows: from 0 to 0.5 min, the mobile phase B was increased from 1% to 90%; from 0.5 to 1.2 min, 90% of the mobile phase B was maintained; starting from 1.21 min, the mobile phase B was changed back to 1%; and elution was stopped at 1.60 min.
Animals: 6 male SD rats were supplied by Shanghai Sippe-Bk Lab Animal Co., Ltd. The body weight range was 180-220 g. After purchase, the rats were bred in the laboratory of the experimental animal center for 2 days for later use. The rats were fasted 10-14 h before administration and 4 h after administration, and given ad libitum access to water during the assay. The rats were randomly divided into two groups, with 3 rats in each group. One group was intravenously injected, and the other group was intragastrically administered.
Preparation of intragastric administration solution: the compound of formula B (4.85 mg) was precisely weighed out, and a mixed aqueous solution (9.70 mL) containing 0.5% methylcellulose and 0.4% Tween-80 was added, followed by sonication at room temperature to prepare a 0.5 mg/mL suspension. Preparation of intravenous injection solution: the compound of formula B (2.79 mg) was precisely weighed out, and DMSO (21 μL), PEG200 (2.79 mL), and normal saline (4.164 mL) were added to prepare a 0.4 mg/mL solution.
Blood was collected in the intragastric administration group about 0.25 h before administration and 0.25 h, 0.5 h, 1 h, 1.5 h, 2 h, 4 h, 6 h, 8 h, 12 h, and 24 h after administration. Blood was collected in the intravenous administration group about 0.25 h before administration and 0.083 h, 0.25 h, 0.5 h, 0.75 h, 1 h, 2 h, 4 h, 8 h, 12 h, and 24 h after administration. The blood was collected from the jugular vein or other venipuncture at 0.25 mL/time point and anticoagulated with EDTA-K2 or EDTA-K3. The collected blood was placed on the ice. After the blood samples were collected, plasma was separated by centrifugation (centrifugation conditions: 6800 g/min, 6 min, 2-8° C.). The collected plasma samples were stored in a refrigerator at −80° C. for testing prior to analysis.
The compound of the formula B was accurately weighed out and formulated into different concentrations, and quantitative analysis was performed on a mass spectrometer to establish a standard curve. The concentration of the compound of formula B in the plasma described above was then measured to obtain the concentrations of the compound of formula B at different time points. All the measured data were collected and processed by relevant software, and pharmacokinetic parameters (mainly including kinetic parameters Tmax, T1/2, Cmax, AUC0-t, etc.) were calculated by adopting a statistical moment method. […]

[2] = male, SD, plasma, iv, intravenously injected, 2.0 mg/kg
[3] = male, SD, plasma, po, intragastrically administered, 5 mg/kg

FGFR4, sequence (P22455 22-802): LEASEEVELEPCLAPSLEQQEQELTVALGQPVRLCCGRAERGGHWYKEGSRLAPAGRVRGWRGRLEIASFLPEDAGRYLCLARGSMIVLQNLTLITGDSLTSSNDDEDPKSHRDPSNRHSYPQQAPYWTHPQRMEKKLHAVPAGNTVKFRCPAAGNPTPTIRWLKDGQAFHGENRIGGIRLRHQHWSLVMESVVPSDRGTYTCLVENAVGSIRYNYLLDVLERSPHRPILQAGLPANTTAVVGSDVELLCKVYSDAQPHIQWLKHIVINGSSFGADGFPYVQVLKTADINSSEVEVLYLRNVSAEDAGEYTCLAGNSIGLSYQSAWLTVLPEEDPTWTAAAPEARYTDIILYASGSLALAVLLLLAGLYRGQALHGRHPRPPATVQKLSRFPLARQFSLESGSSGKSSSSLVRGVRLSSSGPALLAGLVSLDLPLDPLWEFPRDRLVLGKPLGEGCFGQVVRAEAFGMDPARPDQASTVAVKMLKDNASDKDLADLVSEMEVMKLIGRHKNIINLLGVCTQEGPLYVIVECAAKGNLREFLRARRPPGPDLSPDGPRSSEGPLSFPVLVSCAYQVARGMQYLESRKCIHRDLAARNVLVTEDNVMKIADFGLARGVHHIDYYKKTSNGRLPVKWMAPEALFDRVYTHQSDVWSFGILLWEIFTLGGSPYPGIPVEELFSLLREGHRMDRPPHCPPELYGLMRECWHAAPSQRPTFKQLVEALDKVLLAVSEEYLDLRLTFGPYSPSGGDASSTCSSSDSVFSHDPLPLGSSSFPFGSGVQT

## N#Cc1cnc(NC(=O)N2CCCc3cc(CN4CCN5CCC[C@H]5C4=O)c(C=O)nc32)cc1NC1CC1 [compound of formula B]
FGFR4
  IC50: < 5 nM
Huh7 cell
  IC50: < 10 nM
[1]; [2]
  AUC(0-t): 3980 ng·h/mL
  clearance: 8.63 mL/min/kg
  half-life: 1.88 h
[1]; male, SD, plasma, oral, intragastric 5 mg/kg vs intravenous 2.0 mg/kg, read-out: absolute bioavailability
  bioavailability: 48.6%
[1]; [3]
  AUC(0-t): 4840 ng·h/mL
  Cmax: 1220 ng/mL
  half-life: 1.95 h
[1]; male, SD, plasma, po, intragastrically administered, 5 mg/kg, read-out: time at which the plasma concentration reached the peak value (Tmax)
  Tmax: 2.67 h
[1]; intravenously injected, 2.0 mg/kg
  volume distribution: 0.883 L/kg
